Source: US20190185829A1, “Preparation of lipase with improved ester synthesis activity by using surfactants” (Jiangnan University, priority 2017, published 2019)

How the values were obtained:
Type in all cases: biochemical
[1] = tested on: Rhizopus chinensis lipase r27RCL; assay: Ester synthesis activity of surfactant-treated lyophilized lipase r27RCL by GC analysis; settings: surfactant 10 mM, protein 0.2 mg·mL^−1
Experimental: (§1) (2) Determination of Ester Synthesis Activity of the Lipase by GC Analysis
(§2) Substrate solution A: 48.5 mL of n-octanoic acid is dissolved in 250 mL of n-heptane in a volumetric flask.
(§3) Substrate solution B: 17.5 mL of absolute ethanol is dissolved in 250 mL of n-heptane in a volumetric flask.
(§4) Internal standard: 2-hexanol/n-heptane (35 g·L^−1).
(§5) Standard sample: 10 g of n-octanoate is dissolved in 1000 mL of n-heptane in a volumetric flask.
(§6) 1 mL substrate solution A and substrate solution B are added in a 5 mL Eppendorf tube respectively, then 20 mg lipase powder (or lyophilized powder) is added. The reaction is carried out at 40° C. and with shaking at 150 rpm for 30 min. Remove the lipase powder by centrifugation or membrane filtration. Then 0.1 mL of internal standard is added in 0.4 mL of filtrate or supernatant and mixed. Measure the content of n-octanoate in the mixture above by GC analysis.
(§7) The gas chromatograph (6820, Agilent Instruments) is equipped with a AC20 (PEG20000) capillary column and a FID detector. Nitrogen was used as the carrier gas. The oven temperature was programmed to start at 90° C. for 1 min and then be elevated to 200° C. for 5 min at 10° C.·min^−1. The injector and detector temperatures were set at 250° C.
(§8) Definition of enzyme activity: One unit of ester synthesis activity is defined as the amount of enzyme that esterifies 1 micromole of n-octanoate per min.
(§9) Specific activity: the activity of lipase per milligram of total protein in the lipase preparation.
(§10) Total recovery: the percentage of the activity after a treatment to that before the treatment
(§11) Add an equal volume of high-concentration surfactant solution into the enzyme solution. The final protein concentration was […] and the surfactant concentration was 10 mM. After mixed thoroughly, the mixture was lyophilized and kept in dry condition.
(§12) Commercial lipase r27RCL was purchased from Jiangsu Yiming Biological Technology Co., Ltd, which has high hydrolytic activity and low ester synthesis activity. Dissolve the r27RCL powder in water and centrifuge to obtain the supernatant containing the r27RCL lipase to adjust the ester synthesis activity (the final protein concentration was 0.2 mg·mL^−1 and the final concentration of surfactant was 10 mM, which is between 0.1×CMC^˜200×CMC of the different surfactants in Table 1).
(§13) Commercial lipase r27RCL was purchased from Jiangsu Yiming Biological Technology Co., Ltd. r27RCL is a lipase with high hydrolytic activity but low ester synthesis activity. Dissolve the r27RCL powder in water, centrifuge to obtain the supernatant and treat the supernatant with different concentrations of surfactant LPC14 (the final protein concentration was 0.2 mg·mL^−1).

[2] = tested on: Rhizopus chinensis lipase r27RCL; assay: Hydrolytic activity of surfactant-treated lipase r27RCL using pNPP as substrate; settings: surfactant 10 mM, protein 0.2 mg·mL^−1
Source text: (§14) (1) Determination of Hydrolytic Activity of the Lipase Using p-Nitrophenyl Palmitate (pNPP) as Substrate
(§15) Hydrolysis of pNPP catalyzed by lipase generates p-nitrophenol and palmitic acid. p-nitrophenol appears yellow in the buffer at pH 8.0 with the maximum absorption peak at 410 nm. Determination of hydrolytic activity can be achieved by measuring the absorbance at 410 nm.
(§16) The substrate solution A: 50 mmol·L^−1 sodium phosphate buffer (pH 8.0) containing 1.16 g·L^−1 sodium deoxycholate and 0.56 g·L^−1 arabic gum. Substrate solution B: 0.015 g pNPP is dissolved in 5 mL isopropyl alcohol. Substrate solution A and substrate solution B are mixed then stored for use afterwards.
(§17) Termination solution: 40 g·L^−1 NaOH, 93.05 g·L^−1 EDTA sodium. Add 62 uL termination solution to the reaction mixture when stopping the reaction.
(§18) Add 0.1 mL appropriately diluted enzyme solution, which is substituted by inactivated enzyme solution as the control, to 2.4 mL substrate solution above, incubate the mixture at 40° C. for 2 min and measure the absorbance at 410 nm.
(§19) one hydrolytic activity unit is defined as the amount of enzyme that catalyzes the formation of 1 μmol of p-nitrophenol in 1 minute at 40° C.
(§20) enzyme activity (U·mL^−1)=(V×A410×10^6)/(ε×t×V′) Calculation equation: […]
(§21) Specific activity: the activity of lipase per milligram of total protein in the lipase preparation. […]
as §12, §13

[3] = molecular target: T1, Rhizoupus oryzae lipase ROL (Rhizopus oryzae, UniProt P61872); assay: Ester synthesis activity of surfactant-treated lyophilized lipase ROL by GC analysis; settings: surfactant 10 mM, protein 0.2 mg·mL^−1
T1 construct: purchased Sigma-Aldrich Co., Ltd
Experimental: as §1, §2, §3, §4, §5, §6, §7, §8, §9, §10, §11
(§22) Commercial lipase ROL was purchased from Sigma-Aldrich Co., Ltd. ROL is a non-immobilized lipase. Dissolve the ROL powder in water and centrifuge to obtain the supernatant containing the ROL lipase that would be regulated to improve its ester synthesis activity by adjusting the final protein concentration to 0.2 mg·mL^−1 and adding surfactants to the final concentration of 10 mM.
(§23) Commercial lipase ROL was purchased from Sigma-Aldrich Co., Ltd. and is a non-immobilized lipase. Dissolve the ROL powder in water, centrifuge to obtain the supernatant and treat the supernatant with different concentrations of surfactant LPC14 (the final protein concentration was 0.2 mg·mL^−1).

[4] = molecular target: T1, Rhizoupus oryzae lipase ROL; assay: Hydrolytic activity of surfactant-treated lipase ROL using pNPP as substrate; settings: surfactant 10 mM, protein 0.2 mg·mL^−1
Source text: as §14, §15, §16, §17, §18, §19, §20, §21, §22, §23

[5] = molecular target: T2, Pseudomonas cepacia lipase PCL (Burkholderia cepacia, UniProt P22088); assay: Ester synthesis activity of surfactant-treated lyophilized lipase PCL by GC analysis; settings: protein 0.2 mg·mL^−1
T2 construct: purchased Sigma-Aldrich Co., Ltd
Experimental: as §1, §2, §3, §4, §5, §6, §7, §8, §9, §10, §11
as §22, with “PCL” for “ROL”, “the” for “its”
(§24) Commercial lipase PCL was purchased from Sigma-Aldrich Co., Ltd. and is a non-immobilized lipase. Dissolve the PCL powder in water, centrifuge to obtain the supernatant and treat the supernatant with different concentrations of surfactant DDM (the final protein concentration was 0.2 mg·mL^−1).

[6] = molecular target: T2, Pseudomonas cepacia lipase PCL; assay: Hydrolytic activity of surfactant-treated lipase PCL using pNPP as substrate; settings: protein 0.2 mg·mL^−1
Source text: as §14, §15, §16, §17, §18, §19, §20, §21
as §22, with “PCL” for “ROL”, “the” for “its”
as §24

[7] = molecular target: T3, Candida antarctica lipase CALB (Moesziomyces antarcticus, UniProt P41365); assay: Ester synthesis activity of surfactant-treated lyophilized lipase CALB by GC analysis; settings: protein 0.12 mg·mL^−1
T3 construct: purchased Sigma-Aldrich Co., Ltd
Experimental: as §1, §2, §3, §4, §5, §6, §7, §8, §9, §10, §11
as §22, with “CALB” for “ROL”, “the” for “its”, “0.12” for “0.2”
(§25) Commercial lipase CALB was purchased from Sigma-Aldrich Co., Ltd. and is a non-immobilized lipase. Dissolve the CALB powder in water, centrifuge to obtain the supernatant and treat the supernatant with different concentrations of surfactant DDM (the final protein concentration was 0.12 mg·mL^−1).

[8] = molecular target: T3, Candida antarctica lipase CALB; assay: Hydrolytic activity of surfactant-treated lipase CALB using pNPP as substrate; settings: protein 0.12 mg·mL^−1
Source text: as §14, §15, §16, §17, §18, §19, §20, §21
as §22, with “CALB” for “ROL”, “the” for “its”, “0.12” for “0.2”
as §25

[9] = surfactant concentration 0.1 x CMC
[10] = surfactant concentration 1 x CMC
[11] = surfactant concentration 10 x CMC
[12] = surfactant concentration 100 x CMC

T1 sequence (P61872 96-392): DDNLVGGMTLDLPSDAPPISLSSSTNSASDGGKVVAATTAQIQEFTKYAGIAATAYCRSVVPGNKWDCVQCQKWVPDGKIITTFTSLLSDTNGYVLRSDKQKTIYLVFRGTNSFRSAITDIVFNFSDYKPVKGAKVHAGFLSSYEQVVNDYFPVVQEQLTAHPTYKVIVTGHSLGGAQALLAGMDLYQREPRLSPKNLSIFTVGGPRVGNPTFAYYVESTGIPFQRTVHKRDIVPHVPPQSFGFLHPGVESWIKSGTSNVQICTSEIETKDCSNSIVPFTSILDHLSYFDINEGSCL
T2 sequence (P22088 45-364): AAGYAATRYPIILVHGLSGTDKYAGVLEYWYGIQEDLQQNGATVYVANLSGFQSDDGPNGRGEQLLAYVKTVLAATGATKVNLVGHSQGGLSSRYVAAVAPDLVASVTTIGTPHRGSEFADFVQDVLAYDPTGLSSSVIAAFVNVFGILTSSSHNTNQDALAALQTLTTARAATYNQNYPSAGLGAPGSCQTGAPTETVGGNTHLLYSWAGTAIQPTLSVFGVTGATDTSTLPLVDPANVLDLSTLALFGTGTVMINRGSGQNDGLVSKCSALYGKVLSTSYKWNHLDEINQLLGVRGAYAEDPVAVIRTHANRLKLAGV
T3 sequence (P41365 26-342): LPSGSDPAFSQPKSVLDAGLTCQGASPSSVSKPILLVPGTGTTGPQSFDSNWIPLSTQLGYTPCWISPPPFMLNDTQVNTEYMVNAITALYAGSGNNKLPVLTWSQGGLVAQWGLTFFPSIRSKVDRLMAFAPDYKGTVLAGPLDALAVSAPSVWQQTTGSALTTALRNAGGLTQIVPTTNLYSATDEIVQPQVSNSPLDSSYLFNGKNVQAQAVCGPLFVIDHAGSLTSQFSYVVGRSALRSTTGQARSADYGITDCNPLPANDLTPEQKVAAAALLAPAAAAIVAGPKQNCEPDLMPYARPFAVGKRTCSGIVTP

SMILES: CCCCCCCCCCCCOCCOCCOCCOCCOCCOCCOCCOCCO [C12E8, octaethylene glycol monododecyl ether]
- Ester synthesis activity, Specific activity [1]: 22.2 U · mg^−1
- Hydrolytic activity, Specific activity [2]: 117.1 U · mg^−1
- Hydrolytic activity, Total recovery [2]: 101%
- Ester synthesis activity, Specific activity [3]: 2.6 U · mg^−1
- Hydrolytic activity, Specific activity [4]: 23.7 U · mg^−1
- Hydrolytic activity, Total recovery [4]: 82%
- Ester synthesis activity, Specific activity ([5]; surfactant 10 mM): 4.6 U · mg^−1
- Ester synthesis activity, Total recovery ([5]; surfactant 10 mM): 130%
- Hydrolytic activity, Specific activity ([6]; surfactant 10 mM): 281.1 U · mg^−1
- Hydrolytic activity, Total recovery ([6]; surfactant 10 mM): 98%
- Ester synthesis activity, Specific activity ([7]; surfactant 10 mM): 62.8 U · mg^−1
- Hydrolytic activity, Specific activity ([8]; surfactant 10 mM): 0 U · mg^−1
- Hydrolytic activity, Total recovery ([8]; surfactant 10 mM): 0%

SMILES: C[C@H](CCC(=O)NCCC[N+](C)(C)CCCS(=O)(=O)[O-])[C@H]1CC[C@H]2[C@@H]3[C@H](O)C[C@@H]4C[C@H](O)CC[C@]4(C)[C@H]3C[C@H](O)[C@]12C [CHAPS, 3-[(3-Cholamidopropyl)dimethylammonio]-1-propanesulfonate]
- Ester synthesis activity, Specific activity [1]: 13.0 U · mg^−1
- Ester synthesis activity, Total recovery [1]: 105%
- Hydrolytic activity, Specific activity [2]: 132.6 U · mg^−1
- Hydrolytic activity, Total recovery [2]: 109%
- Ester synthesis activity, Specific activity [3]: 2.6 U · mg^−1
- Hydrolytic activity, Specific activity [4]: 23.6 U · mg^−1
- Hydrolytic activity, Total recovery [4]: 81%
- Ester synthesis activity, Specific activity ([5]; surfactant 10 mM): 4.7 U · mg^−1
- Ester synthesis activity, Total recovery ([5]; surfactant 10 mM): 130%
- Hydrolytic activity, Specific activity ([6]; surfactant 10 mM): 248.0 U · mg^−1
- Hydrolytic activity, Total recovery ([6]; surfactant 10 mM): 101%
- Ester synthesis activity, Specific activity ([7]; surfactant 10 mM): 5.9 U · mg^−1
- Ester synthesis activity, Total recovery ([7]; surfactant 10 mM): 44%
- Hydrolytic activity, Specific activity ([8]; surfactant 10 mM): 1.6 U · mg^−1
- Hydrolytic activity, Total recovery ([8]; surfactant 10 mM): 92%

SMILES: CCCCCCCCCCCCCCCC[N+](C)(C)C.[Br-] [CTAB, hexadecyl trimethyl ammonium bromide]
- Ester synthesis activity, Specific activity [1]: 0 U · mg^−1
- Ester synthesis activity, Total recovery [1]: 0%
- Hydrolytic activity, Specific activity [2]: 0 U · mg^−1
- Hydrolytic activity, Total recovery [2]: 0%
- Ester synthesis activity, Specific activity [3]: 0 U · mg^−1
- Ester synthesis activity, Total recovery [3]: 0%
- Hydrolytic activity, Specific activity [4]: 0 U · mg^−1
- Hydrolytic activity, Total recovery [4]: 0%
- Ester synthesis activity, Specific activity ([5]; surfactant 10 mM): 0 U · mg^−1
- Ester synthesis activity, Total recovery ([5]; surfactant 10 mM): 0%
- Hydrolytic activity, Specific activity ([6]; surfactant 10 mM): 75.5 U · mg^−1
- Hydrolytic activity, Total recovery ([6]; surfactant 10 mM): 29%
- Ester synthesis activity, Specific activity ([7]; surfactant 10 mM): 36.6 U · mg^−1
- Ester synthesis activity, Total recovery ([7]; surfactant 10 mM): 300%
- Hydrolytic activity, Specific activity ([8]; surfactant 10 mM): 0 U · mg^−1
- Hydrolytic activity, Total recovery ([8]; surfactant 10 mM): 0%

SMILES: CCCCCCCCCCCCO[C@@H]1O[C@H](CO)[C@@H](O[C@H]2O[C@H](CO)[C@@H](O)[C@H](O)[C@H]2O)[C@H](O)[C@H]1O [DDM, n-dodecyl-ß-D-maltopyranoside]
- Ester synthesis activity, Specific activity [1]: 31.4 U · mg^−1
- Hydrolytic activity, Specific activity [2]: 135.0 U · mg^−1
- Hydrolytic activity, Total recovery [2]: 94%
- Ester synthesis activity, Specific activity [3]: 2.8 U · mg^−1
- Hydrolytic activity, Specific activity [4]: 42.7 U · mg^−1
- Hydrolytic activity, Total recovery [4]: 116%
- Ester synthesis activity, Specific activity ([5]; surfactant 10 mM): 55.6 U · mg^−1
- Ester synthesis activity, Specific activity [5, 9]: 3.2 U · mg^−1
- Ester synthesis activity, Total recovery [5, 9]: 58%
- Ester synthesis activity, Specific activity [5, 10]: 2.9 U · mg^−1
- Ester synthesis activity, Total recovery [5, 10]: 57%
- Ester synthesis activity, Specific activity [5, 11]: 20.0 U · mg^−1
- Ester synthesis activity, Total recovery [5, 11]: 260%
- Ester synthesis activity, Specific activity [5, 12]: 101.6 U · mg^−1
- Hydrolytic activity, Specific activity ([6]; surfactant 10 mM): 327.7 U · mg^−1
- Hydrolytic activity, Total recovery ([6]; surfactant 10 mM): 111%
- Hydrolytic activity, Specific activity [6, 9]: 499.5 U · mg^−1
- Hydrolytic activity, Total recovery [6, 9]: 106%
- Hydrolytic activity, Specific activity [6, 10]: 434.7 U · mg^−1
- Hydrolytic activity, Total recovery [6, 10]: 99%
- Hydrolytic activity, Specific activity [6, 11]: 756.7 U · mg^−1
- Hydrolytic activity, Total recovery [6, 11]: 114%
- Hydrolytic activity, Specific activity [6, 12]: 773.5 U · mg^−1
- Hydrolytic activity, Total recovery [6, 12]: 246%
- Ester synthesis activity, Specific activity ([7]; surfactant 10 mM): 101.9 U · mg^−1
- Ester synthesis activity, Specific activity [7, 9]: 4.0 U · mg^−1
- Ester synthesis activity, Total recovery [7, 9]: 12%
- Ester synthesis activity, Specific activity [7, 10]: 14.3 U · mg^−1
- Ester synthesis activity, Total recovery [7, 10]: 50%
- Ester synthesis activity, Specific activity [7, 11]: 37.3 U · mg^−1
- Ester synthesis activity, Total recovery [7, 11]: 73%
- Ester synthesis activity, Specific activity [7, 12]: 32.6 U · mg^−1
- Ester synthesis activity, Total recovery [7, 12]: 189%
- Hydrolytic activity, Specific activity ([8]; surfactant 10 mM): 0 U · mg^−1
- Hydrolytic activity, Total recovery ([8]; surfactant 10 mM): 0%
- Hydrolytic activity, Specific activity [8, 9]: 2.1 U · mg^−1
- Hydrolytic activity, Total recovery [8, 9]: 45%
- Hydrolytic activity, Specific activity [8, 10]: 3.0 U · mg^−1
- Hydrolytic activity, Total recovery [8, 10]: 75%
- Hydrolytic activity, Specific activity [8, 11]: 0.7 U · mg^−1
- Hydrolytic activity, Total recovery [8, 11]: 10%
- Hydrolytic activity, Specific activity [8, 12]: 0 U · mg^−1
- Hydrolytic activity, Total recovery [8, 12]: 0%
